What follows are compounds tested on tau protein (assay: Tau protein in vitro degradation assay (Western blot, Tau-13 antibody)). Conditions: SK-N-SH cells; 72 hours of incubation; tested at 300 nM, 100 nM, 33 nM and 11 nM; Western blot, Tau-13 antibody.
Assay type: cell-based, human
How it was run: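 Tau degradation read by Tau-13 Western blot (detects all human tau forms) of SDS-PAGE-resolved lysates from SK-N-SH cells. Cells were plated at least 18 h before 72 h exposure to PROTACs at either 1000/300/100 nM or 300/100/33/11 nM.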

Row | SMILES | Degradation activity* (highest amount of degradation observed at any dosage; tau protein remaining)
1 | Cn1c2ccncc2c2ccc(-c3ccc(O[C@H]4C[C@H](Oc5ccc(CCCCCOc6ccc7c(c6)C(=O)N(C6CCC(=O)NC6=O)C7=O)nc5)C4)nc3)cc21 (stereo partly shown) [Compound 95, 2-(2,6-dioxopiperidin-3-yl)-5-((5-(5-((1r,3r)-3-((5-(5-methyl-5H-pyrido[4,3-b]indol-7-yl)pyridin-2-yl)oxy)cyclobutoxy)pyridin-2-yl)pentyl)oxy)isoindoline-1,3-dione] | C (>80% tau protein remaining after 72 hours of incubation with the test compound)
2 | Cn1c2ccncc2c2ccc(-c3ccc(O[C@H]4C[C@H](OCCCCCCN5CCN(c6ccc7c(c6)C(=O)N(C6CCC(=O)NC6=O)C7=O)CC5C(F)(F)F)C4)nc3)cc21 (stereo partly shown) [Compound 96, 2-(2,6-dioxopiperidin-3-yl)-5-(4-(6-((1r,3r)-3-((5-(5-methyl-5H-pyrido[4,3-b]indol-7-yl)pyridin-2-yl)oxy)cyclobutoxy)hexyl)-3-(trifluoromethyl)piperazin-1-yl)isoindoline-1,3-dione] | B (≤80% and >50% tau protein remaining after 72 hours of incubation with the test compound)
3 | Cn1c2ccncc2c2ccc(-c3ccc(O[C@H]4C[C@H](Oc5ccc(C#CCCCCOc6ccc7c(c6)C(=O)N(C6CCC(=O)NC6=O)C7=O)nc5)C4)nc3)cc21 (stereo partly shown) [Compound 97, 2-(2,6-dioxopiperidin-3-yl)-5-((6-(5-((1r,3r)-3-((5-(5-methyl-5H-pyrido[4,3-b]indol-7-yl)pyridin-2-yl)oxy)cyclobutoxy)pyridin-2-yl)hex-5-yn-1-yl)oxy)isoindoline-1,3-dione] | B (≤80% and >50% tau protein remaining after 72 hours of incubation with the test compound)
4 | Cn1c2ccncc2c2ccc(-c3ccc(O[C@H]4C[C@H](Oc5ccc(CCCCCCOc6ccc7c(c6)C(=O)N(C6CCC(=O)NC6=O)C7=O)nc5)C4)nc3)cc21 (stereo partly shown) [Compound 98, 2-(2,6-dioxopiperidin-3-yl)-5-((6-(5-((1r,3r)-3-((5-(5-methyl-5H-pyrido[4,3-b]indol-7-yl)pyridin-2-yl)oxy)cyclobutoxy)pyridin-2-yl)hexyl)oxy)isoindoline-1,3-dione] | B (≤80% and >50% tau protein remaining after 72 hours of incubation with the test compound)
5 | Cn1c2ccncc2c2ccc(-c3ccc(O[C@H]4C[C@H](OCCCOCCCN5CC(Oc6ccc7c(c6)C(=O)N(C6CCC(=O)NC6=O)C7=O)C5)C4)nc3)cc21 (stereo partly shown) [Compound 99, 2-(2,6-dioxopiperidin-3-yl)-5-((1-(3-(3-((1r,3r)-3-((5-(5-methyl-5H-pyrido[4,3-b]indol-7-yl)pyridin-2-yl)oxy)cyclobutoxy)propoxy)propyl)azetidin-3-yl)oxy)isoindoline-1,3-dione] | A (≤50% tau protein remaining after 72 hours of incubation with the test compound)
6 | Cn1c2ccncc2c2ccc(-c3ccc(OCCCCOCCCCOC4CC5(C4)CN(c4ccc6c(c4)C(=O)N(C4CCC(=O)NC4=O)C6=O)C5)nc3)cc21 (stereo not shown) [Compound 100, 2-(2,6-dioxopiperidin-3-yl)-5-(6-(4-(4-((5-(5-methyl-5H-pyrido[4,3-b]indol-7-yl)pyridin-2-yl)oxy)butoxy)butoxy)-2-azaspiro[3.3]heptan-2-yl)isoindoline-1,3-dione] | C (>80% tau protein remaining after 72 hours of incubation with the test compound)
7 | O=C1CCC(N2C(=O)c3ccc(OC4CN(CCCOCCCO[C@H]5C[C@H](Oc6ncc(-c7ccc8c(c7)[nH]c7ccncc78)cc6C(F)(F)F)C5)C4)cc3C2=O)C(=O)N1 (stereo partly shown) [Compound 101, 5-((1-(3-(3-((1r,3r)-3-((5-(5H-pyrido[4,3-b]indol-7-yl)-3-(trifluoromethyl)pyridin-2-yl)oxy)cyclobutoxy)propoxy)propyl)azetidin-3-yl)oxy)-2-(2,6-dioxopiperidin-3-yl)isoindoline-1,3-dione] | A (≤50% tau protein remaining after 72 hours of incubation with the test compound)
8 | Cn1c2ccncc2c2ccc(-c3ccc(O[C@H]4C[C@H](Oc5ccc(C#CCCCCOc6ccc7c(c6)C(=O)N(C6CCC(=O)NC6=O)C7=O)cn5)C4)nc3)cc21 (stereo partly shown) [Compound 102, 2-(2,6-dioxopiperidin-3-yl)-5-((6-(6-((1r,3r)-3-((5-(5-methyl-5H-pyrido[4,3-b]indol-7-yl)pyridin-2-yl)oxy)cyclobutoxy)pyridin-3-yl)hex-5-yn-1-yl)oxy)isoindoline-1,3-dione] | C (>80% tau protein remaining after 72 hours of incubation with the test compound)
9 | Cn1c2ccncc2c2ccc(-c3ccc(O[C@H]4C[C@H](OCCCOCCCOC5CN(c6ccc7c(c6)C(=O)N(C6CCC(=O)NC6=O)C7=O)C5)C4)nc3)cc21 (stereo partly shown) [Compound 104, 2-(2,6-dioxopiperidin-3-yl)-5-(3-(3-(3-((1r,3r)-3-((5-(5-methyl-5H-pyrido[4,3-b]indol-7-yl)pyridin-2-yl)oxy)cyclobutoxy)propoxy)propoxy)azetidin-1-yl)isoindoline-1,3-dione] | A (≤50% tau protein remaining after 72 hours of incubation with the test compound)
10 | Cn1c2ccncc2c2ccc(-c3cnc(O[C@H]4C[C@H](OCCCOCCCN5CC(Oc6ccc7c(c6)C(=O)N(C6CCC(=O)NC6=O)C7=O)C5)C4)c(C(F)(F)F)c3)cc21 (stereo partly shown) [Compound 105, 2-(2,6-dioxopiperidin-3-yl)-5-((1-(3-(3-((1r,3r)-3-((5-(5-methyl-5H-pyrido[4,3-b]indol-7-yl)-3-(trifluoromethyl)pyridin-2-yl)oxy)cyclobutoxy)propoxy)propyl)azetidin-3-yl)oxy)isoindoline-1,3-dione] | A (≤50% tau protein remaining after 72 hours of incubation with the test compound)
11 | Cn1c2ccncc2c2ccc(-c3ccc(OC4CN(CCCCCOCCCCCOc5ccc6c(c5)C(=O)N(C5CCC(=O)NC5=O)C6=O)C4)nc3)cc21 (stereo not shown) [Compound 106, 2-(2,6-dioxopiperidin-3-yl)-5-((5-((5-(3-((5-(5-methyl-5H-pyrido[4,3-b]indol-7-yl)pyridin-2-yl)oxy)azetidin-1-yl)pentyl)oxy)pentyl)oxy)isoindoline-1,3-dione] | B (≤80% and >50% tau protein remaining after 72 hours of incubation with the test compound)
12 | Cn1c2ccncc2c2ccc(-c3ccc(OC4CC5(C4)CN(CCCCOCCCCOc4ccc6c(c4)C(=O)N(C4CCC(=O)NC4=O)C6=O)C5)nc3)cc21 (stereo not shown) [Compound 107, 2-(2,6-dioxopiperidin-3-yl)-5-(4-(4-(6-((5-(5-methyl-5H-pyrido[4,3-b]indol-7-yl)pyridin-2-yl)oxy)-2-azaspiro[3.3]heptan-2-yl)butoxy)butoxy)isoindoline-1,3-dione] | C (>80% tau protein remaining after 72 hours of incubation with the test compound)
13 | Cn1c2ccncc2c2ccc(-c3ccc(O[C@H]4C[C@H](Oc5cccc(OCCCCCCOc6ccc7c(c6)C(=O)N(C6CCC(=O)NC6=O)C7=O)n5)C4)nc3)cc21 (stereo partly shown) [Compound 108, 2-(2,6-dioxopiperidin-3-yl)-5-((6-((6-((1r,3r)-3-((5-(5-methyl-5H-pyrido[4,3-b]indol-7-yl)pyridin-2-yl)oxy)cyclobutoxy)pyridin-2-yl)oxy)hexyl)oxy)isoindoline-1,3-dione] | C (>80% tau protein remaining after 72 hours of incubation with the test compound)

Reference: patent publication US11458123B2 (Arvinas, Inc., priority 2016, dated 2022)
